Assay results: article PMC7351617 (Journal of neurochemistry, 2020)

Tested on: rat adrenal chromaffin cells (native α3β4* / α3β2β4 nAChRs)

In the case of `CC[C@H](C)[C@@H]1NC(=O)[C@@H]2CCCN2C(=O)[C@H](CO)NC(=O)[C@H](CCSC)NC(=O)[C@H](C)NC(=O)[C@H](CO)NC(=O)[C@@H]2CSSC[C@H](NC(=O)CN)C(=O)N[C@@H](CSSC[C@@H](C(N)=O)NC1=O)C(=O)N[C@@H](CO)C(=O)N[C@@H](Cc1c[nH]cn1)C(=O)N1CCC[C@H]1C(=O)N[C@@H](C(C)C)C(=O)N2` [TxID], the Hill slope is reported as −1.1, the “inhibition of the ACh-evoked currents” value is reported as ~ 97% and the IC50 (36 h) is reported as 7 nM. For the same compound, the “ACh-evoked current amplitude in the presence of TxID” value (SD) was −50 ± 24 pA, the “ACh-evoked current amplitude in the presence of TxID alone” value (SD) was −45 ± 26 pA and the “ACh-evoked currents in the presence of TxID, % of controls” value (SD) was 3 ± 1%.
